SMILES	logP
c1ccc2c(c1)CCO2	2.14
COP1(=S)OCc2ccccc2O1 (configuration not stated)	2.67
CC(=O)c1ccc(C)cc1	2.1
N#CC(C(=O)NC(CO)C(O)c1ccc([N+](=O)[O-])cc1)c1ccccc1 (configuration not stated)	1.47
C#CC	0.94
CCCCOc1ccc(C(=O)OCCN(C)C)cc1	3.91
CNC(=O)Oc1ccccc1C	1.46
CCN(CC)CCNC(=O)c1cc(Cl)ccc1OC	3.11
Cc1ccc(Cl)cc1C	3.82
Brc1ccsc1Br	3.53
Oc1ccccc1I	2.65
CCOc1ccc2cc[nH]c2c1	2.53
C[Si](C)(C)Cc1ccccc1	4.13
COc1ccc(N=NN(C)C)cc1	2.99
CC(=O)NCC(=O)N[C@@H](CC(C)C)C(N)=O	-0.78
CNC(=O)Nc1ccccc1	1.12
CC(C)N(N=Nc1ccc(C(N)=O)cc1)C(C)C	3
Cc1ccc2cccc(O)c2n1	2.33
CC(C)N(N=O)C(C)C	1.38
O=C(O)C(CO)c1ccccc1 (configuration not stated)	0.77
O=C(O)COc1cccc(I)c1	2.44

SMILES	logP
CC(=O)NC1CC(=O)N(c2ccccc2)C1=O (configuration not stated)	-0.33
O=C(O)c1ccncc1	0.32
CF	0.51
CCOC(=O)CON=Cc1ccc(OCC(=O)OCC)c(OC)c1	1.87
COc1ccc(C(=O)O)cc1	1.96
Nc1ccc(C(=O)O)cc1O	0.5
CNP(=O)(OC)Oc1ccc(C(C)(C)C)cc1Cl (configuration not stated)	3.42
CC/C(=C(/CC)c1ccc(O)cc1)c1ccc(O)cc1	5.07
CN(CCO)N=Nc1ccc(C(N)=O)cc1	0.26
CSc1ccc(O)cc1	1.78
COCCOc1ccccc1	1.73
O=C(OCn1ncc2c(=O)[nH]cnc21)c1cccc(CN2CCOCC2)c1	1.13
S=C=NC(c1ccccc1)(c1ccccc1)c1ccccc1	7.02
CCOC(=O)c1ccoc1	1.78
CCCN(CCC)CC(=O)OCn1ncc2c(=O)[nH]cnc21	1.27
CC#N	-0.34
CN(C)CCN1c2ccccc2Sc2ccccc21	4.2
FC(F)(F)F	1.18
O=C(O)c1ccoc1	1.03
CCCCOC(=O)n1cnc(CSCCNC(=NC#N)NC)c1C	2.15
COc1cc([C@@H]2c3cc4c(cc3C(O[C@@H]3O[C@@H]5COC(c6cccs6)O[C@H]5[C@H](O)[C@H]3O)C3COC(=O)[C@@H]32)OCO4)cc(OC)c1O (some centres not stated)	1.24

SMILES	logP
CC(=O)N(C)N=Nc1ccc(C)cc1	3.23
O=C(O)CCl	0.22
CCc1cccc2cccnc12	2.93
CCOC(=O)N(C)C	0.89
CCc1cccc(OCC(=O)O)c1	2.25
CCc1ccsc1	2.82
CNC(=O)Oc1cccc(C(C)C)c1	2.63
CC(=O)Nc1ccc(O)cc1C	0.17
COc1ccc(C(C)=O)cc1	1.74
CCc1ccccc1C	3.53
CS(=O)(=O)c1ccccc1	0.5
CCC(C)c1cccc(C(C)CC)c1O (configuration not stated)	4.36
Nc1ccc(C(=O)O)c(Cl)c1	1.33
CC(=O)C(=Cc1ccccc1Cl)C(C)=O	2.19
O=C(O)c1ccccc1Br	2.2
NC(=S)c1cccnc1	0.67
CCOC(=O)C(F)(F)F	1.18
CC(=O)C(C)=O	-1.34
CCCCC(=O)OCC(=O)[C@@]1(OC(=O)CCCC)[C@@H](C)C[C@H]2[C@@H]3CCC4=CC(=O)C=C[C@]4(C)[C@@]3(F)[C@@H](O)C[C@@]21C	5.26
Cc1cncc(C)c1	1.78
CC(=O)c1cccc(C(=O)O)c1	1.56

SMILES	logP
OC(CNCC(O)COc1ccccc1)COc1ccccc1 (configuration not stated)	2.52
C=CCOc1ccccc1	2.94
CN(C)N=Nc1ccc(C(N)=O)cc1	1.2
CCCCn1cc(C)c(=O)[nH]c1=O	0.91
O=S(Cc1ccccc1)Cc1ccccc1	1.99
CC(=O)c1ccc[nH]1	0.93
CC(=O)NC(CO)C(O)c1ccc([N+](=O)[O-])cc1 (configuration not stated)	-0.03
CCCc1ccc(S(N)(=O)=O)cc1	1.64
CC(=O)c1cccc(OC(=O)N(C)C)c1	1.18
COC(=O)C(C)N(C(=O)Cc1ccccc1)c1c(C)cccc1C (configuration not stated)	3.4
CC(=O)OCc1ccc([N+](=O)[O-])cc1	1.73
Nc1ccc(F)c(Cl)c1	2.06
COc1cc(CC(C)N)cc(OC)c1Br (configuration not stated)	2.44
CON(C)C(=O)Nc1ccc(C(=O)c2ccccc2)cc1	2.86
CC(=O)Nc1ccc(O)c(C)c1C	0.57
Clc1cc(Cl)c(Cl)c(-c2c(Cl)c(Cl)c(Cl)c(Cl)c2Cl)c1Cl	8.16
CCCOC=O	0.83
Cc1ccc2ncccc2c1	2.57
CCCCOC(=O)NCC(C)c1ncc([N+](=O)[O-])[nH]1 (configuration not stated)	1.22
